Laboratory results: BigSolDB 2.1

O=C(O)[C@@H]1C[C@@H](O)CN1
Settings	solubility (mole fraction)
in 1,4-dioxane, 288.15 K	0.00041
in 1,4-dioxane, 293.15 K	0.00063
in 1,4-dioxane, 298.15 K	0.00085
in 1,4-dioxane, 303.15 K	0.00108
in 1,4-dioxane, 308.15 K	0.00131
in 1,4-dioxane, 313.15 K	0.00153
in 1,4-dioxane, 318.15 K	0.00178
in 1,4-dioxane, 323.15 K	0.00204
in 1,4-dioxane, 328.15 K	0.00238
in 1,4-dioxane, 333.15 K	0.00274
in 2-butanone, 283.15 K	4.4e-05
in 2-butanone, 288.15 K	7.9e-05
in 2-butanone, 293.15 K	0.000128
in 2-butanone, 298.15 K	0.00019
in 2-butanone, 303.15 K	0.00028
in 2-butanone, 308.15 K	0.000382
in 2-butanone, 313.15 K	0.000483
in 2-butanone, 318.15 K	0.000602
in 2-butanone, 323.15 K	0.000723
in 2-butanone, 328.15 K	0.000865
in 2-butanone, 333.15 K	0.00101
in acetone, 283.15 K	0.000922
in acetone, 288.15 K	0.0011
in acetone, 293.15 K	0.00139
in acetone, 298.15 K	0.00164
in acetone, 303.15 K	0.00205
in acetone, 308.15 K	0.00235
in acetone, 313.15 K	0.00277
in acetone, 318.15 K	0.0032
in acetone, 323.15 K	0.00383
in acetone, 328.15 K	0.00441
in acetonitrile, 288.15 K	3.3e-05
in acetonitrile, 293.15 K	6.5e-05
in acetonitrile, 298.15 K	0.000103
in acetonitrile, 303.15 K	0.000146
in acetonitrile, 308.15 K	0.000186
in acetonitrile, 313.15 K	0.000226
in acetonitrile, 318.15 K	0.000267
in acetonitrile, 323.15 K	0.000315
in acetonitrile, 328.15 K	0.000358
in acetonitrile, 333.15 K	0.000416
in dichloromethane, 283.15 K	0.000134
in dichloromethane, 288.15 K	0.000221
in dichloromethane, 293.15 K	0.000313
in dichloromethane, 298.15 K	0.000412
in dichloromethane, 303.15 K	0.000511
in dichloromethane, 308.15 K	0.000614
in ethanol, 283.15 K	7e-05
in ethanol, 288.15 K	0.000109
in ethanol, 293.15 K	0.000145
in ethanol, 298.15 K	0.000188
in ethanol, 303.15 K	0.000226
in ethanol, 308.15 K	0.000273
in ethanol, 313.15 K	0.000313
in ethanol, 318.15 K	0.000378
in ethanol, 323.15 K	0.000431
in ethanol, 328.15 K	0.000512
in ethanol, 333.15 K	0.000573
in ethyl acetate, 283.15 K	0.000455
in ethyl acetate, 288.15 K	0.000653
in ethyl acetate, 293.15 K	0.000863
in ethyl acetate, 298.15 K	0.00108
in ethyl acetate, 303.15 K	0.00132
in ethyl acetate, 308.15 K	0.00167
in ethyl acetate, 313.15 K	0.0019
in ethyl acetate, 318.15 K	0.00227
in ethyl acetate, 323.15 K	0.00262
in ethyl acetate, 328.15 K	0.00314
in ethyl acetate, 333.15 K	0.00379
in isobutanol, 283.15 K	6.9e-05
in isobutanol, 288.15 K	8.2e-05
in isobutanol, 293.15 K	9.7e-05
in isobutanol, 298.15 K	0.000113
in isobutanol, 303.15 K	0.000143
in isobutanol, 308.15 K	0.000189
in isobutanol, 313.15 K	0.000222
in isobutanol, 318.15 K	0.000263
in isobutanol, 323.15 K	0.000301
in isobutanol, 328.15 K	0.000346
in isobutanol, 333.15 K	0.000383
in isopropanol, 283.15 K	3.5e-05
in isopropanol, 288.15 K	6.8e-05
in isopropanol, 293.15 K	9.9e-05
in isopropanol, 298.15 K	0.000119
in isopropanol, 303.15 K	0.000154
in isopropanol, 308.15 K	0.000204
in isopropanol, 313.15 K	0.000254
in isopropanol, 318.15 K	0.00031
in isopropanol, 323.15 K	0.00036
in isopropanol, 328.15 K	0.000419
in isopropanol, 333.15 K	0.000493
in methanol, 283.15 K	0.000127
in methanol, 288.15 K	0.000149
in methanol, 293.15 K	0.000171
in methanol, 298.15 K	0.000212
in methanol, 303.15 K	0.000253
in methanol, 308.15 K	0.000292
in methanol, 313.15 K	0.000328
in methanol, 318.15 K	0.000407
in methanol, 323.15 K	0.000525
in methanol, 328.15 K	0.000653
in methanol, 333.15 K	0.000784
in methyl acetate, 283.15 K	1.5e-05
in methyl acetate, 288.15 K	4e-05
in methyl acetate, 293.15 K	8e-05
in methyl acetate, 298.15 K	0.000116
in methyl acetate, 303.15 K	0.000153
in methyl acetate, 308.15 K	0.000219
in methyl acetate, 313.15 K	0.000278
in methyl acetate, 318.15 K	0.000331
in methyl acetate, 323.15 K	0.0004
in methyl acetate, 328.15 K	0.000474
in n-butanol, 283.15 K	8.8e-05
in n-butanol, 288.15 K	0.0001
in n-butanol, 293.15 K	0.000122
in n-butanol, 298.15 K	0.000142
in n-butanol, 303.15 K	0.000181
in n-butanol, 308.15 K	0.000219
in n-butanol, 313.15 K	0.000264
in n-butanol, 318.15 K	0.000316
in n-butanol, 323.15 K	0.000362
in n-butanol, 328.15 K	0.00042
in n-butanol, 333.15 K	0.0005
in n-pentanol, 283.15 K	6.3e-05
in n-pentanol, 288.15 K	8.4e-05
in n-pentanol, 293.15 K	0.000114
in n-pentanol, 298.15 K	0.000142
in n-pentanol, 303.15 K	0.00017
in n-pentanol, 308.15 K	0.000215
in n-pentanol, 313.15 K	0.000321
in n-pentanol, 318.15 K	0.000487
in n-pentanol, 323.15 K	0.000628
in n-pentanol, 328.15 K	0.000805
in n-pentanol, 333.15 K	0.00104
in n-propanol, 283.15 K	6.6e-05
in n-propanol, 288.15 K	0.000109
in n-propanol, 293.15 K	0.000126
in n-propanol, 298.15 K	0.000154
in n-propanol, 303.15 K	0.000203
in n-propanol, 308.15 K	0.000253
in n-propanol, 313.15 K	0.000304
in n-propanol, 318.15 K	0.000355
in n-propanol, 323.15 K	0.000409
in n-propanol, 328.15 K	0.000456
in n-propanol, 333.15 K	0.000502
in sec-butanol, 283.15 K	3.8e-05
in sec-butanol, 288.15 K	6.8e-05
in sec-butanol, 293.15 K	9e-05
in sec-butanol, 298.15 K	0.000129
in sec-butanol, 303.15 K	0.000166
in sec-butanol, 308.15 K	0.000205
in sec-butanol, 313.15 K	0.000245
in sec-butanol, 318.15 K	0.000293
in sec-butanol, 323.15 K	0.000321
in sec-butanol, 328.15 K	0.000365
in sec-butanol, 333.15 K	0.000407
in water, 283.15 K	0.0457
in water, 288.15 K	0.0473
in water, 293.15 K	0.0493
in water, 298.15 K	0.0511
in water, 303.15 K	0.053
in water, 308.15 K	0.0554
in water, 313.15 K	0.0571
in water, 318.15 K	0.059
in water, 323.15 K	0.0612
in water, 328.15 K	0.0632
in water, 333.15 K	0.0671
